In US9555038B2, “Heterocycle-substituted tetracyclic compounds and methods of use thereof for the treatment of viral diseases” (Merck Sharp & Dohme Corp., priority 2013, dated 2017) one finds IC50 data, which are given here for 15 compounds.

Where two headings read alike, the source gives them in different places.

The subject of one test is HCV replicon 1B. Briefly: Cell-based HCV Replicon Assay B, replicon 1B. In a few lines:
(§1)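 EC50 defined as the drug concentration giving a CT increase of 1 above projected baseline, from real-time RT-PCR of replicon RNA using genotype-specific primers and probes. Cells were seeded in 5% FBS, dosed after 24 h and incubated 3 days before lysis.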

In another test the test system is HCV replicon 1AY93H. The test can be described thus: Cell-based HCV Replicon Assay A, replicon 1AY93H. The gist of the method:
(§2)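 Three-day exposure of replicon cells (2000/well) to serially diluted compound, 0.5% DMSO, 5% serum. RNA per cell was derived as (Ct − intercept)/slope from replicon total RNA standards, with cyclophilin amplified in the same reaction.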
(Replicon systems follow genome replication, usually without infectious particles.)

Another test concerns HCV replicon 1AQ30D. Briefly: Cell-based HCV Replicon Assay B, replicon 1AQ30D. The gist of the method:
as §1

The next test deals with HCV replicon 1A. Briefly: Cell-based HCV Replicon Assay A, replicon 1A. The gist of the method: as §2
A further test deals with HCV replicon 2B. Briefly: Cell-based HCV Replicon Assay A, replicon 2B. The gist of the method: as §2
Where [1] appears, read: read-out: 1A Y93H IC50, replicon 1AY93H.
The mark [2] stands for this setting: read-out: 1A Q30D IC50, replicon 1AQ30D.
Where [3] appears, read: Hepatitis C virus, read-out: 1A Q30D IC50 (nM), replicon 1AQ30D.
[4] abbreviates: Hepatitis C virus, read-out: 1A Y93H IC50 (nM), replicon 1AY93H.
Where [5] appears, read: Hepatitis C virus, read-out: 2B IC50 (nM), replicon 2B.

For `COC(=O)N[C@H](C(=O)N1CCC[C@H]1c1ncc(-c2cc(F)c3c(c2)OC(c2cnc(C4CC4)s2)n2c-3c(F)c3cc(-c4cnc([C@@H]5CCCN5C(=O)[C@@H](NC(=O)OC)C5CCOCC5)[nH]4)ccc32)[nH]1)C(C)C` (single isomer, unassigned) [Compound 42], the IC50 was found to be 2 pM with HCV replicon 1B; 0.0141 nM in the test with HCV replicon 1AY93H (setting [1]); 0.123 nM with HCV replicon 1AQ30D (setting [2]); 1.6 pM in the test with HCV replicon 1A; 0.017 nM in the test on HCV replicon 2B (read-out: 2B IC50, replicon 2B).

As for `CCc1ncc(C2Oc3cc(-c4cnc([C@@H]5CCCN5C(=O)[C@@H](NC(=O)OC)C(C)C)[nH]4)cc(F)c3-c3cc4cc(-c5cnc([C@@H]6C[C@H]7C[C@H]7N6C(=O)C(NC(=O)OC)C6CCOC(C)(C)C6)[nH]5)ccc4n32)s1` (single isomer, unassigned) [Compound 92], the half-inhibitory concentration (IC50) was found to be 6 pM in the test on HCV replicon 1B (Hepatitis C virus); 0.0045 nM with HCV replicon 1AY93H (setting [1]); 0.064 nM with HCV replicon 1AQ30D (setting [2]); 3.7 pM in the test on HCV replicon 1A (Hepatitis C virus); 0.005 nM in the test with HCV replicon 2B (read-out: 2B IC50, replicon 2B).

Regarding `COC(=O)NC(C(=O)N1CCC[C@H]1c1ncc(-c2ccc3c(c2)cc2n3C(c3cnc(C4CC4)s3)Oc3cc(-c4cnc([C@@H]5CCCN5C(=O)[C@@H](NC(=O)OC)C(C)C)[nH]4)cc(F)c3-2)[nH]1)C1C[C@@H](C)O[C@@H](C)C1` (single isomer, unassigned) [Compound 307], the IC50 in the test with HCV replicon 1B (Hepatitis C virus) amounted to 5 pM; with HCV replicon 1AY93H (setting [1]) it was 0.0083 nM; in the test with HCV replicon 1AQ30D (setting [3]) it was 0.047 nM; in the test with HCV replicon 1A it was 4.2 pM; with HCV replicon 2B (read-out: 2B IC50, replicon 2B), 0.006 nM.

In the case of `COC(=O)NC(C(=O)N1[C@@H]2C[C@@H]2C[C@H]1c1ncc(-c2ccc3c(c2)cc2n3C(c3cnc(C4CC4)s3)Oc3cc(-c4cnc([C@@H]5CCCN5C(=O)[C@@H](NC(=O)OC)C(C)C)[nH]4)cc(F)c3-2)[nH]1)C(C)(C)F` (single isomer, unassigned) [Compound 28], the IC50 in the test with HCV replicon 1B is 2 pM; in the test on HCV replicon 1AY93H (setting [1]), 0.115 nM; in the test on HCV replicon 1AQ30D (setting [2]), 0.908 nM; with HCV replicon 1A, 1.2 pM; in the test with HCV replicon 2B (read-out: 2B IC50, replicon 2B), 0.204 nM.

For `COC(=O)NC(C(=O)N1CCC[C@H]1c1ncc(-c2ccc3c(c2)cc2n3C(c3cnc(C4CC4)s3)Oc3cc(-c4cnc([C@@H]5CCCN5C(=O)[C@@H](NC(=O)OC)C(C)C)[nH]4)cc(C)c3-2)[nH]1)C1CCOC(C)(C)C1` (single isomer, unassigned) [Compound 214], the IC50 stood at 8 pM in the test with HCV replicon 1B (Hepatitis C virus); 0.02 nM in the test on HCV replicon 1AY93H (setting [4]); 0.44 nM with HCV replicon 1AQ30D (setting [3]); 2.7 pM in the test on HCV replicon 1A (Hepatitis C virus); 0.004 nM in the test with HCV replicon 2B (setting [5]).

As for `CCc1ncc(C2Oc3cc(-c4cnc([C@@H]5CCCN5C(=O)[C@@H](NC(=O)OC)C(C)C)[nH]4)cc(F)c3-c3cc4cc(-c5cnc([C@@H]6C[C@H]7C[C@H]7N6C(=O)C(NC(=O)OC)C6CCOC(C)(C)C6)[nH]5)ccc4n32)s1` (single isomer, unassigned) [Compound 94], the IC50 in the test with HCV replicon 1B is 3 pM; with HCV replicon 1AY93H (setting [1]) it was 0.0035 nM; in the test on HCV replicon 1AQ30D (setting [2]) it was 0.045 nM; in the test with HCV replicon 1A it was 3 pM; in the test on HCV replicon 2B (read-out: 2B IC50, replicon 2B), 0.004 nM.

For `COC(=O)N[C@H](C(=O)N1CCC[C@H]1c1ncc(-c2cc(F)c3c(c2)OC(c2ncc(-c4ccc(F)cc4)s2)n2c-3cc3cc(-c4cnc([C@@H]5CCCN5C(=O)[C@@H](NC(=O)OC)C(C)C)[nH]4)ccc32)[nH]1)C(C)C` (single isomer, unassigned) [Compound 34], the IC50 in the test with HCV replicon 1B came to 1 pM; in the test with HCV replicon 1AY93H (setting [1]) it was 0.0331 nM; with HCV replicon 1AQ30D (setting [2]), 0.144 nM; in the test with HCV replicon 1A, 2.2 pM; in the test on HCV replicon 2B (read-out: 2B IC50, replicon 2B), 0.022 nM.

For `COC(=O)NC(C(=O)N1CCC[C@H]1c1ncc(-c2ccc3c(c2)cc2n3C(c3cnc(C4CCOCC4)s3)Oc3cc(-c4cnc([C@@H]5CCCN5C(=O)[C@@H](NC(=O)OC)C(C)C)[nH]4)cc(F)c3-2)[nH]1)C1CCOC(C)(C)C1` (single isomer, unassigned) [Compound 449], the 50% inhibitory concentration (IC50) in the test on HCV replicon 1B was determined as 3.4 pM; in the test with HCV replicon 1AY93H (setting [1]) it was 0.064 nM; in the test on HCV replicon 1AQ30D (setting [2]), 0.737 nM; with HCV replicon 1A, 4.3 pM; with HCV replicon 2B (read-out: 2B IC50, replicon 2B) it was 0.044 nM.

Consider `COC(=O)N[C@H](C(=O)N1CCC[C@H]1c1ncc(-c2cc(F)c3c(c2)OC(c2cnc(C4CC4)s2)n2c-3cc3cc(-c4cnc([C@@H]5CC6(C)CC6N5C(=O)[C@@H](NC(=O)OC)C(C)C)[nH]4)ccc32)[nH]1)C(C)C` (single isomer, unassigned) [Compound 519], for which the IC50 in the test with HCV replicon 1B turned out to be 2.1 pM; with HCV replicon 1AY93H (replicon 1AY93H, read-out: 1A Y93H IC50), 0.669 nM; in the test with HCV replicon 1AQ30D (replicon 1AQ30D, read-out: 1A Q30D IC50), 0.951 nM; with HCV replicon 1A it was 3.1 pM; in the test on HCV replicon 2B (replicon 2B, read-out: 2B IC50), 0.598 nM.

`COC(=O)NC(C(=O)N1[C@@H]2C[C@@H]2C[C@H]1c1ncc(-c2ccc3c(c2)cc2n3C(c3cnc(C4(C)CC4)s3)Oc3cc(-c4cnc([C@@H]5CCCN5C(=O)[C@@H](NC(=O)OC)C(C)C)[nH]4)cc(F)c3-2)[nH]1)C1C[C@@H](C)O[C@@H](C)C1` (single isomer, unassigned) [Compound 464]: the 50% inhibitory concentration (IC50) in the test with HCV replicon 1B stood at 3.4 pM; with HCV replicon 1AY93H (setting [1]) it was 0.197 nM; with HCV replicon 1AQ30D (setting [2]) it was 1.23 nM; with HCV replicon 1A it was 2.8 pM; in the test with HCV replicon 2B (read-out: 2B IC50, replicon 2B), 0.282 nM.

For `CCCc1ncc(C2Oc3cc(-c4cnc([C@@H]5CCCN5C(=O)[C@@H](NC(=O)OC)C(C)C)[nH]4)cc(F)c3-c3cc4cc(-c5cnc([C@@H]6C[C@H]7C[C@H]7N6C(=O)C(NC(=O)OC)C6C[C@@H](C)O[C@@H](C)C6)[nH]5)ccc4n32)s1` (single isomer, unassigned) [Compound 108], the IC50 in the test on HCV replicon 1B (Hepatitis C virus) stood at 4 pM; in the test with HCV replicon 1AY93H (setting [1]), 0.0033 nM; in the test on HCV replicon 1AQ30D (setting [2]) it was 0.016 nM; with HCV replicon 1A (Hepatitis C virus) it was 2.8 pM; in the test on HCV replicon 2B (read-out: 2B IC50, replicon 2B) it was 0.007 nM.

As to `COC(=O)NC(C(=O)N1[C@@H]2C[C@@H]2C[C@H]1c1ncc(-c2ccc3c(c2)cc2n3C(c3cnc(C4(C)CCCC4)s3)Oc3cc(-c4cnc([C@@H]5CCCN5C(=O)[C@@H](NC(=O)OC)C(C)C)[nH]4)cc(F)c3-2)[nH]1)C1CCOC(C)(C)C1` (single isomer, unassigned) [Compound 477], the IC50 was 3.7 pM with HCV replicon 1B; 0.003 nM with HCV replicon 1AY93H (setting [1]); 0.009 nM with HCV replicon 1AQ30D (setting [2]); 3.2 pM in the test on HCV replicon 1A; 0.008 nM with HCV replicon 2B (read-out: 2B IC50, replicon 2B).

`COC(=O)NC(C(=O)N1[C@@H]2C[C@@H]2C[C@H]1c1ncc(-c2ccc3c(c2)cc2n3C(c3ncc(C4CC4)s3)Oc3cc(-c4cnc([C@@H]5CCCN5C(=O)[C@@H](NC(=O)OC)C(C)C)[nH]4)cc(F)c3-2)[nH]1)C1C[C@@H](C)O[C@@H](C)C1` (single isomer, unassigned) [Compound 65]: the IC50 is 3 pM in the test with HCV replicon 1B (Hepatitis C virus); 0.0081 nM with HCV replicon 1AY93H (setting [1]); 0.095 nM with HCV replicon 1AQ30D (setting [3]); 2.1 pM in the test with HCV replicon 1A; 0.044 nM in the test on HCV replicon 2B (read-out: 2B IC50, replicon 2B).

As for `COC(=O)N[C@H](C(=O)N1CCC[C@H]1c1ncc(-c2cc(F)c3c(c2)OC(c2cnc(C(C)(C)C)s2)n2c-3cc3cc(-c4cnc([C@@H]5CCCN5C(=O)[C@@H](NC(=O)OC)C(C)C)[nH]4)ccc32)[nH]1)C(C)C` (mixture of isomers) [Compound 418], the IC50 in the test on HCV replicon 1B (Hepatitis C virus) was determined as 3 pM; in the test with HCV replicon 1AY93H (setting [4]), 0.0083 nM; in the test on HCV replicon 1AQ30D (setting [3]), 0.255 nM; in the test on HCV replicon 1A (Hepatitis C virus), 2.3 pM; in the test on HCV replicon 2B (setting [5]), 0.095 nM.

Turning to `COC(=O)N[C@H](C(=O)N1CCC[C@H]1c1ncc(-c2cc(F)c3c(c2)OC(c2cnc(-c4ccncc4)s2)n2c-3cc3cc(-c4cnc([C@@H]5CCCN5C(=O)[C@@H](NC(=O)OC)C(C)C)[nH]4)ccc32)[nH]1)C(C)C` (single isomer, unassigned) [Compound 409], the IC50 in the test on HCV replicon 1B (Hepatitis C virus) is 7 pM; in the test with HCV replicon 1AY93H (setting [4]), 0.577 nM; in the test on HCV replicon 1AQ30D (setting [3]) it was 5.1 nM; with HCV replicon 1A (Hepatitis C virus), 10.8 pM; in the test with HCV replicon 2B (setting [5]), 1.28 nM.

In general, IC50 refers to the concentration that inhibits the measured activity by half.
